According to the supplement of paper PMC6045584:
± gives the standard deviation of the averaged measurements.

compound: CN1CC[C@H](c2c(O)cc(O)c3c(=O)cc(-c4ccccc4Cl)oc23)[C@H](O)C1 [FLAVOPIRIDOL]; test: surviving fraction relative to DMSO-only wells; higher = less growth inhibition; details: 0.5 nM; exposure time: 5 days
In short: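 For each tumour cell line, log-phase cells were put into 384-well plates at 250–500 cells per well, then after 24 hours exposed continuously for five days to inhibitors at 0.5, 1, 5, 10, 50, 100, 500 and 1000 nM. Viability was assessed by CellTiter-Glo luminescence, with surviving fraction expressed relative to the median of DMSO-only wells. Lines were screened three times and retained only if replicate Pearson r exceeded 0.7 and median Z' exceeded 0.3.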

Test System	surviving fraction
HMLE3 BREAST	1.07 ± 0.088
HS578T BREAST	1.13 ± 0.054
HMT3552 BREAST	1.06 ± 0.041
CCK81 LARGE INTESTINE	0.883 ± 0.13
HCC38 BREAST	1.18 ± 0.1
HS57T BREAST	1.06 ± 0.053
G292 BONE	0.97 ± 0.068
HCC70 BREAST	1.03 ± 0.06

same assay, conditions: 1 nM; exposure time: 5 days

Test System	surviving fraction
HMLE3 BREAST	0.951 ± 0.097
HS578T BREAST	1.21 ± 0.13
HMT3552 BREAST	1.05 ± 0.045
CCK81 LARGE INTESTINE	0.817 ± 0.082
HCC38 BREAST	1.22 ± 0.13
HS57T BREAST	1.06 ± 0.015
G292 BONE	0.987 ± 0.057
HCC70 BREAST	1.02 ± 0.11

same assay, conditions: 5 nM; exposure time: 5 days

Test System	surviving fraction
HMLE3 BREAST	1.16 ± 0.087
HS578T BREAST	1.19 ± 0.29
HMT3552 BREAST	0.986 ± 0.071
CCK81 LARGE INTESTINE	0.785 ± 0.15
HCC38 BREAST	1.33 ± 0.097
HS57T BREAST	1.12 ± 0.037
G292 BONE	1.033 ± 0.0078
HCC70 BREAST	1.06 ± 0.1

same assay, conditions: 10 nM; exposure time: 5 days

Test System	surviving fraction
HMLE3 BREAST	1.11 ± 0.097
HS578T BREAST	1.21 ± 0.2
HMT3552 BREAST	0.963 ± 0.027
CCK81 LARGE INTESTINE	0.813 ± 0.1
HCC38 BREAST	1.34 ± 0.21
HS57T BREAST	1.16 ± 0.035
G292 BONE	0.995 ± 0.024
HCC70 BREAST	1.01 ± 0.11

same assay, conditions: 50 nM; exposure time: 5 days

Test System	surviving fraction
HMLE3 BREAST	0.771 ± 0.074
HS578T BREAST	0.667 ± 0.08
HMT3552 BREAST	0.232 ± 0.019
CCK81 LARGE INTESTINE	0.416 ± 0.062
HCC38 BREAST	1.02 ± 0.15
HS57T BREAST	0.667 ± 0.018
G292 BONE	0.628 ± 0.039
HCC70 BREAST	0.784 ± 0.1

same assay, conditions: 100 nM; exposure time: 5 days

Test System	surviving fraction
HMLE3 BREAST	0.131 ± 0.029
HS578T BREAST	0.0923 ± 0.01
HMT3552 BREAST	0.068 ± 0.0027
CCK81 LARGE INTESTINE	0.0273 ± 0.011
HCC38 BREAST	0.571 ± 0.18
HS57T BREAST	0.0337 ± 0.0025
G292 BONE	0.18 ± 0.0055
HCC70 BREAST	0.129 ± 0.078

same assay, conditions: 500 nM; exposure time: 5 days

Test System	surviving fraction
HMLE3 BREAST	0.026 ± 0.0036
HS578T BREAST	0.068 ± 0.0036
HMT3552 BREAST	0.066 ± 0.003
CCK81 LARGE INTESTINE	0.0177 ± 0.0015
HCC38 BREAST	0.046 ± 0.0053
HS57T BREAST	0.036 ± 0.001
G292 BONE	0.0742 ± 0.0043
HCC70 BREAST	0.0557 ± 0.032

same assay, conditions: 1000 nM; exposure time: 5 days

Test System	surviving fraction
HMLE3 BREAST	0.0233 ± 0.0015
HS578T BREAST	0.0673 ± 0.0025
HMT3552 BREAST	0.061 ± 0.0027
CCK81 LARGE INTESTINE	0.0203 ± 0.00058
HCC38 BREAST	0.0423 ± 0.0093
HS57T BREAST	0.0327 ± 0.0021
G292 BONE	0.0712 ± 0.0055
HCC70 BREAST	0.0423 ± 0.019
